Test results: patent US9434693B2, “Substituted pyrazoles as N-type calcium channel blockers” (Janssen Pharmaceutica NV, priority 2012, dated 2016)
Counter-ions that a name gives are not always drawn.

Molecular target: N-type calcium channel (α1B (Cav2.2), β3 and α2δ subunits) in stable HEK cell line (Homo sapiens (Human), UniProt Q00975)
Assay: Functional assay (FDSS calcium mobilization): antagonism of N-type calcium channel
Type: cell-based
Details: for IC50: KCl (50 mM) depolarization, six-point concentration-response; for inhibition at 0.33 µM: HEK293; for inhibition at 0.33 µM / % Inhibition (%) at 0.33 μM: FDSS, 0.33 μM compound
Method: A stable cell line (HEK parent) co-expressing the α1B (Cav2.2), β3 and α2δ subunits of the N-type calcium channel subunits was used. These cells were routinely grown as monolayers in low glucose-containing Dulbecco's Modified Eagle Medium supplemented with 10% FBS, 2 mM L-glutamine, 100 I.U./mL penicillin, 100 μg/mL streptomycin, 400 μg/mL G418 and 200 μg/mL Zeocin (split ratio=1:5). Cells were maintained in 5% CO2 at 37° C. Compounds of Formula (I) were prepared as 10 mM stocks in DMSO from neat compound, if available. Otherwise, the 5 or 10 mM DMSO stock solutions provided in-house were used.
Calcium mobilization responses to KCl depolarization were evaluated by measuring the intensity of calcium-mediated fluorescent signal in the presence of BD Calcium Assay Dye (BD Biosciences, Franklin Lakes, N.J., U.S.A.), utilizing a Functional Drug Screening System (FDSS) by Hamamatsu Corporation (Bridgewater, N.J. U.S.A.).
Twenty-four hr prior to assay, cells were seeded in clear-base poly-D-lysine-coated 384-well plates (BD Biosciences) at a density of 5,000 cells per well in culture medium and grown overnight in 5% CO2 at 37° C. On the day of assay, growth media were removed, and cells were loaded with BD calcium assay dye (BD Biosciences) for 35 min at 37° C. under 5% CO2 and then for 25 min at room temp. Utilizing the FDSS, cells were exposed to representative compounds of Formula (I) at varying concentrations, and intracellular calcium was measured for 5 min prior to the addition of 50 mM KCl for an additional 3 min of measurement.
IC50 values for representative compounds of Formula (I) were determined from six-point concentration-response experiments and represent the concentration of said compound required to inhibit 50% of the maximal response. Maximal fluorescence intensity (FI) achieved upon addition of 50 mM KCl was exported from the FDSS software and further analyzed using GraphPad Prism 3.02 (Graph Pad Software Inc., San Diego, Calif., U.S.A.). Data were normalized to the maximum average counts from quadruplicate wells for each condition in the presence of 50 mM KCl and to the minimum average counts in the presence of buffer. Theoretical curves were generated using nonlinear regression curve-fitting analysis of either sigmoidal concentration-response or sigmoidal concentration-response (variable slope), and the IC50 values with the best-fit curve determined by GraphPad Prism were reported.

Sequence of N-type calcium channel (α1B (Cav2.2), β3 and α2δ subunits) in stable HEK cell line (Q00975 whole entry): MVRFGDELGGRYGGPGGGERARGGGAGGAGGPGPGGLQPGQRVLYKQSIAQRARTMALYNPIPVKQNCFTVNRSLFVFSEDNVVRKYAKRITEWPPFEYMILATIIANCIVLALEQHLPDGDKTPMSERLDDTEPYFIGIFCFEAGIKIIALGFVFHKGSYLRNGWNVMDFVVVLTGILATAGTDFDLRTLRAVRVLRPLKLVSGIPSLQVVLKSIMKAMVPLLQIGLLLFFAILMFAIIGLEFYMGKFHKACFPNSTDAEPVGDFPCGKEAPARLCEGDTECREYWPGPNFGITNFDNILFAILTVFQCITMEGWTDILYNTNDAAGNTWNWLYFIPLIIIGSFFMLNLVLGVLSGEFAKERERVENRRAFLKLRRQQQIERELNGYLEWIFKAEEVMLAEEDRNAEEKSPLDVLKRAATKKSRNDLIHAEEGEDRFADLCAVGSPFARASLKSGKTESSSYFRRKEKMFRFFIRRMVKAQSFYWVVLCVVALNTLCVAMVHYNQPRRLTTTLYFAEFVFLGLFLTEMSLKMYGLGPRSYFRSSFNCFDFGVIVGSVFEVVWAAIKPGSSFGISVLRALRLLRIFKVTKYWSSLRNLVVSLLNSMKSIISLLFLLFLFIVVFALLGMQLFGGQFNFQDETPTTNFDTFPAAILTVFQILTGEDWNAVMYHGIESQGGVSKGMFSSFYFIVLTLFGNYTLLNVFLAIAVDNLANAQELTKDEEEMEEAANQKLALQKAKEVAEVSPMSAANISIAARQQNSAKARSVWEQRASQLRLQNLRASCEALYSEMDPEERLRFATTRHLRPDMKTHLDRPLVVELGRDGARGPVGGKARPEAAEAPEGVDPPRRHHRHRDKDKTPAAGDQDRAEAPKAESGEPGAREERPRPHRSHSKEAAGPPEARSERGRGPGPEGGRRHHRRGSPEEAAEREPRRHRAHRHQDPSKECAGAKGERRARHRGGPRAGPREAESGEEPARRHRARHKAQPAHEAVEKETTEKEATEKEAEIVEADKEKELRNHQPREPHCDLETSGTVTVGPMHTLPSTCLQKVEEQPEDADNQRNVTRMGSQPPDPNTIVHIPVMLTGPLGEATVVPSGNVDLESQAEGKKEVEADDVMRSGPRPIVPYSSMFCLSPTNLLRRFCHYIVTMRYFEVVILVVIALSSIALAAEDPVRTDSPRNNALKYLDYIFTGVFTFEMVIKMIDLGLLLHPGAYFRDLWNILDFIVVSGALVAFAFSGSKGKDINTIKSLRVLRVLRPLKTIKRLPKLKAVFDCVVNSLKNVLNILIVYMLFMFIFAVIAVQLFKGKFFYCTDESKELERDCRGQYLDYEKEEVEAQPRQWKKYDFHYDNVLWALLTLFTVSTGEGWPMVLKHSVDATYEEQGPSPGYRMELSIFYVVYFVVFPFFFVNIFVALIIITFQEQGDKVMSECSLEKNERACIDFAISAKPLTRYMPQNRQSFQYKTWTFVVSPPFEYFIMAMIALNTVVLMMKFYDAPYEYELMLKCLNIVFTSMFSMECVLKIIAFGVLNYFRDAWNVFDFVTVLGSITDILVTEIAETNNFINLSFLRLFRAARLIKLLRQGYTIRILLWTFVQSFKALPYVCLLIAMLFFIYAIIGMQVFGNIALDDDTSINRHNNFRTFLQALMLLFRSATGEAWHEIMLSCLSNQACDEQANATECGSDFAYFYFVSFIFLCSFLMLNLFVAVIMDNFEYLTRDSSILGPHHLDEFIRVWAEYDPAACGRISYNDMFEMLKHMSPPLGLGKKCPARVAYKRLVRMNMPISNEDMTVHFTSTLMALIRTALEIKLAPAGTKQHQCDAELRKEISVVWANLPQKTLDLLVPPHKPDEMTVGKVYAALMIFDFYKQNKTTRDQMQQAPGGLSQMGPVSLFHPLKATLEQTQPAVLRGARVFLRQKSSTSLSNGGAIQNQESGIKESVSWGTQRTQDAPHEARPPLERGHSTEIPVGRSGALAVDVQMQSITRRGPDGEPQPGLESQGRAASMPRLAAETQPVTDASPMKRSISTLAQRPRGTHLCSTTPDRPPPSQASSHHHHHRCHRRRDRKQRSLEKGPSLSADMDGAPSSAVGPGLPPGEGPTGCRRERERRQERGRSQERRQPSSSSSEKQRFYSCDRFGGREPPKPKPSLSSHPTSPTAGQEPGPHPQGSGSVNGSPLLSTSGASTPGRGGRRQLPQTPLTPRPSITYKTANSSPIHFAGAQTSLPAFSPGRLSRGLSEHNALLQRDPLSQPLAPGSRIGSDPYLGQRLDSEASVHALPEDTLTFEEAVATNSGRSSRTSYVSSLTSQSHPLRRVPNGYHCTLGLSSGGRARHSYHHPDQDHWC
Sequence of N-type calcium channel (α1B (Cav2.2), β3 and α2δ subunits) in stable HEK cell line (P54284 whole entry partner): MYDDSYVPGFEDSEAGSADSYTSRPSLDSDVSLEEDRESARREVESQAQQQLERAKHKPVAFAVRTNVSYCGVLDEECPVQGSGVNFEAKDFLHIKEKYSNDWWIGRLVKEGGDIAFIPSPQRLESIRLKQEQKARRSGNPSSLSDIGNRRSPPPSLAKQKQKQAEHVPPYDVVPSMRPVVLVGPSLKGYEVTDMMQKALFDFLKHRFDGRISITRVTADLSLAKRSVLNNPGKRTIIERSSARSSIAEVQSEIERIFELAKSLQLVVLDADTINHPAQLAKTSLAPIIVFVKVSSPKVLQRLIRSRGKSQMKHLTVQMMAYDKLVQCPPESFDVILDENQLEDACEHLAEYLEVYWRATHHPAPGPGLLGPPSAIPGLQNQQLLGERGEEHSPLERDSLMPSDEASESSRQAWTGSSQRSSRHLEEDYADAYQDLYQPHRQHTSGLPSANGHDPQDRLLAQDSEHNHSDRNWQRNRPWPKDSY
Sequence of N-type calcium channel (α1B (Cav2.2), β3 and α2δ subunits) in stable HEK cell line (P54289 25-1103 partner): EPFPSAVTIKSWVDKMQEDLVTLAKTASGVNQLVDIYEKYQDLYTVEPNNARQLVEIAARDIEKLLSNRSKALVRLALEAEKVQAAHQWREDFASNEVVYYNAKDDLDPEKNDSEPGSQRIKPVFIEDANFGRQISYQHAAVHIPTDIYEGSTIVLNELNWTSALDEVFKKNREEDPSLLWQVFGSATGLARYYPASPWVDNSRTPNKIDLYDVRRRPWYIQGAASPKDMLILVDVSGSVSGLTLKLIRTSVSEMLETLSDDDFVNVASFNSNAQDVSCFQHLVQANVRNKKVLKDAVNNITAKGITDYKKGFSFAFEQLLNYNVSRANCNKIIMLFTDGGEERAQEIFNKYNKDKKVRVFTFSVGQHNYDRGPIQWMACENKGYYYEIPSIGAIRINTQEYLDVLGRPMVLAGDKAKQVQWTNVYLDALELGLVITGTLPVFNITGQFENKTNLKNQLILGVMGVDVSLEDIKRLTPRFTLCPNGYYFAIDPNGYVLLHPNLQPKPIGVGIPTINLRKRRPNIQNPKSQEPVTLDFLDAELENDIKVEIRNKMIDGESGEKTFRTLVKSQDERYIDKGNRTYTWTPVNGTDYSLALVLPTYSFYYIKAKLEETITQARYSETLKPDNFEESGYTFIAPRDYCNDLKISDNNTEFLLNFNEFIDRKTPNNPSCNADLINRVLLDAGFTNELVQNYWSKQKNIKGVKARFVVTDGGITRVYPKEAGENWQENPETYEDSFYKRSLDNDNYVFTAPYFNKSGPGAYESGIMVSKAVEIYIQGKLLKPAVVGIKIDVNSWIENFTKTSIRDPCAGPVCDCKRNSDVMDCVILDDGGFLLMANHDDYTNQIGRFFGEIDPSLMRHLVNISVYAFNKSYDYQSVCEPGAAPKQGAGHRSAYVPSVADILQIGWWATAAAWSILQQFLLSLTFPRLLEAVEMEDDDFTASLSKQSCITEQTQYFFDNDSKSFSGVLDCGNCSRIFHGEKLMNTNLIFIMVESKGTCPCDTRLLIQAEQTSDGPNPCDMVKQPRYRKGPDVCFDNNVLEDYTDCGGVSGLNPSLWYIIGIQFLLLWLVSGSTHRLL

| Structure (SMILES) | IC50 [nM] | inhibition at 0.33 µM [%] | % Inhibition (%) at 0.33 μM [%] |
| --- | --- | --- | --- |
| COc1ccccc1-n1nc(OC2CCSCC2)cc1-c1ccc(Cl)cc1 [Compound 7, 5-(4-Chlorophenyl)-1-(2-methoxyphenyl)-3-(tetrahydro-2H-thiopyran-4-yloxy)-1H-pyrazole] | 28 |  |  |
| COc1ccccc1-n1nc(OC2CCOCC2)cc1-c1ccc(Cl)cc1 [Compound 6, 5-(4-Chlorophenyl)-1-(2-methoxyphenyl)-3-(tetrahydro-2H-pyran-4-yloxy)-1H-pyrazole] | 15 | 98 |  |
| COc1ccccc1-n1nc(OC2CCN(C(C)=O)CC2)cc1-c1ccc(Cl)cc1 [Compound 3, 1-Acetyl-4-{[5-(4-chlorophenyl)-1-(2-methoxyphenyl)-1H-pyrazol-3-yl]oxy}piperidine] | 26 |  |  |
| COc1ccccc1-n1nc(OC2CCS(=O)(=O)CC2)cc1-c1ccc(Cl)cc1 [Compound 10, 5-(4-Chlorophenyl)-3-[(1,1-dioxidotetrahydro-2H-thiopyran-4-yl)oxy]-1-(2-methoxyphenyl)-1H-pyrazole] | 30 |  |  |
| COc1ccccc1-n1nc(OC2CC(C)(C)S(=O)(=O)C(C)(C)C2)cc1-c1ccc(C#N)cc1 [Compound 45, 4-{1-(2-Methoxyphenyl)-3-[(2,2,6,6-tetramethyl-1,1-dioxidotetrahydro-2H-thiopyran-4-yl)oxy]-1H-pyrazol-5-yl}benzonitrile] | 2.4 | 99 |  |
| COc1ccccc1-n1nc(OC2CCN(CC(F)(F)F)CC2)cc1-c1ccc(Cl)cc1 [Compound 8, 4-{[5-(4-Chlorophenyl)-1-(2-methoxyphenyl)-1H-pyrazol-3-yl]oxy}-1-(2,2,2-trifluoroethyl)piperidine] | 31 |  |  |
| CC(C)(C)Oc1ccccc1-n1nc(OC2CCN(S(C)(=O)=O)CC2)cc1-c1ccc(Cl)cc1 [Compound 24, 4-{[1-(2-tert-Butoxyphenyl)-5-(4-chlorophenyl)-1H-pyrazol-3-yl]oxy}-1-(methylsulfonyl)piperidine] |  | 57 |  |
| COc1ccc(-c2cc(OC3CC(C)(C)S(=O)(=O)C(C)(C)C3)nn2-c2ccccc2OC)cc1 [Compound 33, 1-(2-Methoxyphenyl)-5-(4-methoxyphenyl)-3-[(2,2,6,6-tetramethyl-1,1-dioxidotetrahydro-2H-thiopyran-4-yl)oxy]-1H-pyrazole] | 3 | 94 |  |
| COc1ccccc1-n1nc(OC2CCN(C(=O)C(F)(F)F)CC2)cc1-c1ccc(Cl)cc1 [Compound 9, 4-{[5-(4-Chlorophenyl)-1-(2-methoxyphenyl)-1H-pyrazol-3-yl]oxy}-1-(trifluoroacetyl)piperidine] | 31.4 |  |  |
| COc1ccccc1-n1nc(O[C@H]2CC(C)(C)[S@+]([O-])C(C)(C)C2)cc1-c1ccc(C#N)cc1 [Compound 46] | 14 |  | 90 |
| COc1ccccc1-n1nc(OCC2C(C)(C)OC2(C)C)cc1-c1ccc(Cl)cc1 [Compound 40] | 3.1 | 95 |  |
| COc1ccc(-c2cc(OC3CC(C)(C)SC(C)(C)C3)nn2-c2ccccc2OC)cc1 [Compound 32, 1-(2-Methoxyphenyl)-5-(4-methoxyphenyl)-3-[(2,2,6,6-tetramethyltetrahydro-2H-thiopyran-4-yl)oxy]-1H-pyrazole] | 6 | 93 |  |
| COc1ccccc1-n1nc(OC2CC(C)(C)OC(C)(C)C2)cc1-c1ccc(C#N)cc1 [Compound 43, 4-{1-(2-Methoxyphenyl)-3-[(2,2,6,6-tetramethyltetrahydro-2H-pyran-4-yl)oxy]-1H-pyrazol-5-yl}benzonitrile] | 7.2 | 90 |  |
| COc1ccccc1-n1nc(OC2CC(C)(C)C(=O)C(C)(C)C2)cc1-c1ccc(Cl)cc1 [Compound 41, 4-{[5-(4-Chlorophenyl)-1-(2-methoxyphenyl)-1H-pyrazol-3-yl]oxy}-2,2,6,6-tetramethylcyclohexanone] |  | 92 |  |
| CCc1ccccc1-n1nc(OC2CCC3(CC2)OCCO3)cc1-c1ccc(Cl)cc1 [Compound 17, 5-(4-Chlorophenyl)-3-(1,4-dioxaspiro[4.5]dec-8-yloxy)-1-(2-ethylphenyl)-1H-pyrazole] | 81 |  |  |
| CCc1ccccc1-n1nc(OC2CCN(C(=O)OC(C)(C)C)CC2)cc1-c1ccc(Cl)cc1 [Compound 18, tert-Butyl 4-{[5-(4-chlorophenyl)-1-(2-ethylphenyl)-1H-pyrazol-3-yl]oxy}piperidine-1-carboxylate] | 50 |  |  |
| COc1ccccc1-n1nc(O[C@H]2CC[C@@H](N)CC2)cc1-c1ccc(Cl)cc1 [Compound 12, cis-4-{[5-(4-Chlorophenyl)-1-(2-methoxyphenyl)-1H-pyrazol-3-yl]oxy}cyclohexanamine trifluoroacetate] | 400 |  |  |
| COc1ccccc1-n1nc(O[C@H]2CC[C@@H](NC(=O)C(F)(F)F)CC2)cc1-c1ccc(Cl)cc1 [Compound 13, N-(cis-4-{[5-(4-Chlorophenyl)-1-(2-methoxyphenyl)-1H-pyrazol-3-yl]oxy}cyclohexyl)-2,2,2-trifluoroacetamide] | 11 |  |  |
| COc1ccccc1-n1nc(OC2CCN(S(=O)(=O)C(F)(F)F)CC2)cc1-c1ccc(Cl)cc1 [Compound 14, 4-{[5-(4-Chlorophenyl)-1-(2-methoxyphenyl)-1H-pyrazol-3-yl]oxy}-1-[(trifluoromethyl)sulfonyl]piperidine] | 24 |  |  |
| COc1ccccc1-n1nc(OC2CC(C)(C)C(O)C(C)(C)C2)cc1-c1ccc(Cl)cc1 (stereo not shown) [Compound 42, 4-{[5-(4-Chlorophenyl)-1-(2-methoxyphenyl)-1H-pyrazol-3-yl]oxy}-2,2,6,6-tetramethylcyclohexanol] | 39 | 78 |  |
| COc1ccccc1-n1nc(OC2CCN(S(C)(=O)=O)CC2)cc1-c1ccc(Cl)cc1 [Compound 5, 4-{[5-(4-Chlorophenyl)-1-(2-methoxyphenyl)-1H-pyrazol-3-yl]oxy}-1-(methylsulfonyl)piperidine] | 15 |  |  |
| CC(C)Oc1ccccc1-n1nc(OC2CCN(S(=O)(=O)C(C)C)CC2)cc1-c1ccc(Cl)cc1 [Compound 28, 4-({5-(4-Chlorophenyl)-1-[2-(1-methylethoxy)phenyl]-1H-pyrazol-3-yl}oxy)-1-[(1-methylethyl)sulfonyl]piperidine] | 7 | 96 |  |
| COc1ccc(-c2cc(O[C@H]3CC(C)(C)[S@+]([O-])C(C)(C)C3)nn2-c2ccccc2OC)cc1 [Compound 34, (1r,4r)-4-((1-(2-methoxyphenyl)-5-(4-methoxyphenyl)-1H-pyrazol-3-yl)oxy)-2,2,6,6-tetramethyltetrahydro-2H-thiopyran 1-oxide] | 4.5 |  | 94 |
| COc1ccccc1-n1nc(O[C@H]2CC(C)(C)[S@@+]([O-])C(C)(C)C2)cc1-c1ccc(Cl)cc1.O=C(O)C(F)(F)F [Compound 39, (1 s,4s)-4-((5-(4-chlorophenyl)-1-(2-methoxyphenyl)-1H-pyrazol-3-yl)oxy)-2,2,6,6-tetramethyltetrahydro-2H-thiopyran 1-oxide trifluoroacetate] | 1.5 |  | 99 |
| COc1ccc(-c2cc(O[C@H]3CC(C)(C)[S@@+]([O-])C(C)(C)C3)nn2-c2ccccc2OC)cc1 [Compound 35, (1s,4s)-4-((1-(2-methoxyphenyl)-5-(4-methoxyphenyl)-1H-pyrazol-3-yl)oxy)-2,2,6,6-tetramethyltetrahydro-2H-thiopyran 1-oxide] | 7.6 |  | 91 |
| COc1ccccc1-n1nc(OC2CCN(C(=O)OC(C)(C)C)CC2)cc1-c1ccc(Cl)cc1 [Compound 1, tert-Butyl 4-{[5-(4-chlorophenyl)-1-(2-methoxyphenyl)-1H-pyrazol-3-yl]oxy}piperidine-1-carboxylate] | 30 |  |  |
| COc1ccccc1-n1nc(OC2CN(C(=O)c3ccccc3)C2)cc1-c1ccc(Cl)cc1 [Compound 27, 5-(4-Chlorophenyl)-1-(2-methoxyphenyl)-3-{[1-(phenylcarbonyl)azetidin-3-yl]oxy}-1H-pyrazole] | 85 | 87 |  |
| COc1ccccc1-n1nc(OC2CN(S(=O)(=O)C(C)C)C2)cc1-c1ccc(Cl)cc1 [Compound 25, 5-(4-Chlorophenyl)-1-(2-methoxyphenyl)-3-({1-[(1-methylethyl)sulfonyl]azetidin-3-yl}oxy)-1H-pyrazole] | 36 | 92 |  |
| COc1ccccc1-n1nc(OC2CCC(F)(F)CC2)cc1-c1ccc(Cl)cc1 [Compound 16, 5-(4-Chlorophenyl)-3-[(4,4-difluorocyclohexyl)oxy]-1-(2-methoxyphenyl)-1H-pyrazole] | 41 |  |  |
